Experiment [1] deals with staphylococcal infected rabbits. Nature of the experiment: Rabbit model of aortic valve endocarditis. Type of experiment: in vivo. The text has this: The simultaneous treatment of staphylococcal infection with suppression of resistant strain formation is an exciting and widely useful invention nowhere predicted in the art. This invention offers the possibility of treating staphylococcal infections while suppressing the generation of strains resistant to any or all active agents administered.

The test system of experiment [2] is strains 27619, Col, 27227 and VA348. In words: Checkerboard susceptibility testing of lysostaphin and oxacillin. The experiment is classed as cell-based. Conditions: oxacillin in concentrations up to 1 μg/ml; all strains tested.
Procedure: Checkerboard susceptibility testing was conducted to determine whether simultaneous administration of lysostaphin and oxacillin (a β-lactam) would be effective in suppressing the development of resistance. Oxacillin concentrations varied between 0.0156 μg/ml and 1 μg/ml. Lysostaphin concentrations varied between 0.00048 and 0.9 μg/ml. Four strains were tested for evidence of synergy between lysostaphin and oxacillin; 27619, Col, 27227 and VA348.
Where [3] appears, read: lysostaphin 1 mg/kg bid (low dose), alone or together with nafcillin.

Take lysostaphin: in experiment [1] (setting [3]), the “Bacterial counts in kidneys” value is on record as “high counts”, the “Bacterial counts in vegetations” value is “high counts” and the “Recovery of resistant colonies/strains” value is listed as “recovery of a number of resistant colonies”. In experiment [1] (lysostaphin alone), the “Minimum dose for sterilization” value amounted to 5 mg/kg tid. In addition, the “MIC of lysostaphin in the presence of oxacillin” value in experiment [2] is recorded as “unchanged”.

The values are drawn from patent publication US8198231B2, “Compositions and methods for treatment of staphylococcal infection while suppressing formation of antibiotic-resistant strains” (priority 1999, dated 2012).
